Read-outs that look alike come from different tables or passages of the source.
Tests used:
[1] = test system: Salmonella typhimurium TA 98; assay: Ames bacterial reverse mutation assay, plate incorporation method; type: cell-based
[2] = test system: Salmonella typhimurium TA 100; type: cell-based; settings: plate incorporation
[3] = test system: Salmonella typhimurium TA 1537; assay: Ames bacterial reverse mutation assay, pre-incubation method; type: cell-based
[4] = test system: Salmonella typhimurium TA 98; assay: as above; type: cell-based
[5] = test system: CYP2B6; assay: CYP mRNA induction in human hepatocytes; type: in vitro ADME; settings: 0.3, 3, 30 µM; 72 hours; 3 donors
[6] = target: hERG (Homo sapiens, UniProt Q12809); type: cell-based
[7] = Red blood cell distribution in whole blood; type: in vitro ADME; settings: human, whole blood (pooled, EDTA)
[8] = Red blood cell distribution in whole blood; type: in vitro ADME; settings: male, Sprague-Dawley, rat, whole blood (EDTA)
[9] = Stability in rabbit plasma; type: in vitro ADME
[10] = In vitro metabolism in cryopreserved hepatocytes; type: in vitro ADME; settings: rabbit hepatocytes; 25 µM; 4 hours
[11] = In vitro metabolism in cryopreserved hepatocytes; type: in vitro ADME; settings: human hepatocytes; 25 µM; 4 hours
[12] = test system: plasma protein; settings: human plasma, mean ± SE
[13] = test system: C. elegans; settings: ref Nguyen et al., 2016; cited from earlier work
[14] = +S9, 0.05 mg/plate as printed (third dose row)
[15] = −S9, 0.05 mg/plate as printed (third dose row)

Sequence of hERG (Q12809 whole entry): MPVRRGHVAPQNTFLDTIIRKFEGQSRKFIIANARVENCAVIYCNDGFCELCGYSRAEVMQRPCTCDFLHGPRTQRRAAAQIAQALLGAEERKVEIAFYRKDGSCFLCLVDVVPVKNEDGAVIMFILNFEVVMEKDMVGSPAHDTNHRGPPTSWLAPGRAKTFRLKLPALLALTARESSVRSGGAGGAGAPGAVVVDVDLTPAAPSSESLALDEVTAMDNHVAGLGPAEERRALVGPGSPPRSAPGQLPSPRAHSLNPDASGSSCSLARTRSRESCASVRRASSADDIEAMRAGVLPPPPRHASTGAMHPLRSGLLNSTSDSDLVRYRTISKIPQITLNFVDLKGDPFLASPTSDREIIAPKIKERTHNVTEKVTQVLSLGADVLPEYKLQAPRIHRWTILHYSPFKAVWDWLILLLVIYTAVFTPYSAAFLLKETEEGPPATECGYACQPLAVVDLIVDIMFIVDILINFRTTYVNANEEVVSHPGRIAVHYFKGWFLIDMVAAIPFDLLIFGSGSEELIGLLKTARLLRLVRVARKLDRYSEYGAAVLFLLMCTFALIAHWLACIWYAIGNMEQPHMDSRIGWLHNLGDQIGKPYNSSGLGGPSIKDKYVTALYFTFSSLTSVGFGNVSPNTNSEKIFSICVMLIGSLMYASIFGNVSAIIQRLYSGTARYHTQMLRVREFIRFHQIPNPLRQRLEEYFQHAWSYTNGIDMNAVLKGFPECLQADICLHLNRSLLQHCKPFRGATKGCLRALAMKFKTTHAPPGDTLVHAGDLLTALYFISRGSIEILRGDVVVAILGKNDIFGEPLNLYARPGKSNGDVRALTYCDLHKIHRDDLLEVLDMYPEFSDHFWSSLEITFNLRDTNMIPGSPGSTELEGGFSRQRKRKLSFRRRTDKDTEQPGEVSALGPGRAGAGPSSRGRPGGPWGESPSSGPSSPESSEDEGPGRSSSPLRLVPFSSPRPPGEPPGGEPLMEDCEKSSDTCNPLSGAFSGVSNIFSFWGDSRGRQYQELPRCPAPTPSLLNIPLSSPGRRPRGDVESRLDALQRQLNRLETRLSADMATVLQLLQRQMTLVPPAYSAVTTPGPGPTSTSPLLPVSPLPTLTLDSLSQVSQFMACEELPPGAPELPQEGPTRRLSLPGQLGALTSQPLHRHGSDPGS

With CC(=O)O.NCc1ccccc1O [2-HOBA, 2-Hydroxybenzylamine acetate] the “Mean plate counts (revertant colonies)” value ([1]; +S9, 0.05 mg/plate) was 20.7±1.2, the “Mean plate counts (revertant colonies)” value [1, 14] was 20.7±1.2 and the “Mean plate counts (revertant colonies)” value ([1]; +S9, 0.15 mg/plate) was 21.0±3.0. The “Mean plate counts (revertant colonies)” value ([1]; +S9, 1.5 mg/plate) was 21.3±1.5, the “Mean plate counts (revertant colonies)” value ([1]; +S9, 5 mg/plate) was 22.0±2.0 and the “Change in revertant colony counts vs negative control (mutagenicity)” value (from here on “Change in revertant colony counts”) ([1]; +S9 and −S9, all dose levels) was “No changes in revertant colony counts were observed”. The “Mean plate counts (revertant colonies)” value ([1]; −S9, 0.05 mg/plate) was 19.7±1.5, the “Mean plate counts (revertant colonies)” value [1, 15] was 22.0±3.6 and the “Mean plate counts (revertant colonies)” value ([1]; −S9, 0.15 mg/plate) was 20.0±1.0. For the same compound, the “Mean plate counts (revertant colonies)” value ([1]; −S9, 1.5 mg/plate) was 21.3±1.5, the “Mean plate counts (revertant colonies)” value ([1]; −S9, 5 mg/plate) was 21.0±2.0 and the “Mean plate counts (revertant colonies)” value ([2]; +S9, 0.05 mg/plate) was 106.3±1.5. The “Mean plate counts (revertant colonies)” value [2, 14] was 96.3±5.1, the “Mean plate counts (revertant colonies)” value ([2]; +S9, 0.15 mg/plate) was 104.7±8.1 and the “Mean plate counts (revertant colonies)” value ([2]; +S9, 1.5 mg/plate) was 106.7±6.1. The “Mean plate counts (revertant colonies)” value ([2]; +S9, 5 mg/plate) was 101.3±4.2, the “Change in revertant colony counts” value ([2]; +S9 and −S9, all dose levels) was “No changes in revertant colony counts were observed” and the “Mean plate counts (revertant colonies)” value ([2]; −S9, 0.05 mg/plate) was 90.3±1.5. The “Mean plate counts (revertant colonies)” value [2, 15] was 100.0±9.2, the “Mean plate counts (revertant colonies)” value ([2]; −S9, 0.15 mg/plate) was 105.3±8.3 and the “Mean plate counts (revertant colonies)” value ([2]; −S9, 1.5 mg/plate) was 101.3±3.2. The “Mean plate counts (revertant colonies)” value ([2]; −S9, 5 mg/plate) was 100.7±2.1, the “Mean plate counts (revertant colonies)” value ([3]; +S9, 0.05 mg/plate) was 6.7±0.6 and the “Mean plate counts (revertant colonies)” value ([3]; +S9, 0.15 mg/plate) was 7.3±1.2. The “Mean plate counts (revertant colonies)” value ([3]; +S9, 0.5 mg/plate) was 8.0±1.0, the “Mean plate counts (revertant colonies)” value ([3]; +S9, 1.5 mg/plate) was 7.0±1.0 and the “Mean plate counts (revertant colonies)” value ([3]; +S9, 5 mg/plate) was 6.3±1.5. The “Change in revertant colony counts” value ([3]; +S9 and −S9, all dose levels) was “No changes in revertant colony counts were observed”, the “Mean plate counts (revertant colonies)” value ([3]; −S9, 0.05 mg/plate) was 6.7±0.6 and the “Mean plate counts (revertant colonies)” value [3, 15] was 7.0±0.0. For the same compound, the “Mean plate counts (revertant colonies)” value ([3]; −S9, 0.15 mg/plate) was 6.0±1.0, the “Mean plate counts (revertant colonies)” value ([3]; −S9, 1.5 mg/plate) was 6.0±1.0 and the “Mean plate counts (revertant colonies)” value ([3]; −S9, 5 mg/plate) was 6.3±1.2. For the same compound, the “Mean plate counts (revertant colonies)” value ([4]; +S9, 0.05 mg/plate) was 25.7±3.1, the “Mean plate counts (revertant colonies)” value ([4]; +S9, 0.15 mg/plate) was 23.7±2.5 and the “Mean plate counts (revertant colonies)” value ([4]; +S9, 0.5 mg/plate) was 24.3±2.1. For the same compound, the “Mean plate counts (revertant colonies)” value ([4]; +S9, 1.5 mg/plate) was 25.7±3.1, the “Mean plate counts (revertant colonies)” value ([4]; +S9, 5 mg/plate) was 22.3±3.2 and the “Change in revertant colony counts” value ([4]; +S9 and −S9, all dose levels) was “No changes in revertant colony counts were observed”. The “Mean plate counts (revertant colonies)” value ([4]; −S9, 0.05 mg/plate) was 20.0±1.0, the “Mean plate counts (revertant colonies)” value [4, 15] was 20.7±2.1 and the “Mean plate counts (revertant colonies)” value ([4]; −S9, 0.15 mg/plate) was 16.7±1.5. The “Mean plate counts (revertant colonies)” value ([4]; −S9, 1.5 mg/plate) was 22.3±3.2, the “Mean plate counts (revertant colonies)” value ([4]; −S9, 5 mg/plate) was 23.0±1.0 and the “CYP2B6 mRNA induction (concentration-dependent >2-fold increase)” value [5] was “no evidence of mRNA induction”. For the same compound, the IC50 [6] was greater than 100 µM, the “Inhibition of hERG current” value ([6]; 0.1 µM) was “no inhibition” and the “Inhibition of hERG current” value ([6]; 1 µM, mean ± SE) was 3.0 ± 0.5 % inhibition. The “Inhibition of hERG current” value ([6]; 10 µM, mean ± SE) was 9.7 ± 1.8 % inhibition, the “Inhibition of hERG current” value ([6]; 100 µM, mean ± SE) was 29.1 ± 1.3 % inhibition and the Kp at 2 h, 1 µM [7] was 1.26 ± 0.01. The Kp at 2 h, 10 µM [7] was 1.08, the blood plasma ratio at 2 h, 1 µM [7] was 1.12 ± 0.03 and the blood plasma ratio at 2 h, 10 µM [7] was 1.04. For the same compound, the Kp at 2 h, 1 µM [8] was 0.72 ± 0.1, the Kp at 2 h, 10 µM [8] was 0.78 and the blood plasma ratio at 2 h, 1 µM [8] was 0.87 ± 0.05. For the same compound, the blood plasma ratio at 2 h, 10 µM [8] was 0.9, the fraction metabolized ([9]; within 30 min) was “more than 60%” and the fraction metabolized ([9]; within 2 hours) was “nearly all”. For the same compound, the principle metabolites observed [10] was “salicylic acid (M1) and the glycoside conjugate metabolite of 2-HOBA”, the principle metabolites observed [11] was “salicylic acid (M1) and the glycoside conjugate metabolite of 2-HOBA” and the “fb (bound fraction)” value ([12]; 1 µM) was 0.079 ± 0.023. The “fb (bound fraction)” value ([12]; 10 µM) was 0.140 ± 0.022 and the lifespan [13] was “increased lifespan”.

Reference: PMC6220894 (Food and chemical toxicology : an international journal …, 2018)
